For the assay, the target named is T1, Human FXRα Ligand Binding Domain (Homo sapiens, UniProt Q96RI1).
T1 construct: polyhistidine (pRSET-A vector leader) (N); made in house; host or cells: E. coli BL21 (DE3), pRSET-A vector
T1 sequence (Q96RI1 237-472 isoform Q96RI1-2): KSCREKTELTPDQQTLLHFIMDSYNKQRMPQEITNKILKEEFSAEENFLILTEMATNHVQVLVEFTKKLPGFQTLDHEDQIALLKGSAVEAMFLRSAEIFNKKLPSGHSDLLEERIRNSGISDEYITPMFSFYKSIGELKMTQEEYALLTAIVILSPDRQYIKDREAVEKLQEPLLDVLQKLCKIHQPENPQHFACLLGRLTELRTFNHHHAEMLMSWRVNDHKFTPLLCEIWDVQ
Put plainly: FXR Cofactor Binding Assay (ligand mediated SRC-1 cofactor peptide interaction, time resolved fluorescence). In kind it is biochemical. The settings on record: FXRα LBD / SRC-1 (LCD2, 676-700) peptide, TRF; read-out: Activity (pEC50) (converted). An excerpt:
Determination of a ligand mediated cofactor peptide interaction to quantify ligand binding to the nuclear receptor Farnesoid X Receptor (FXR). The method measures the ability of putative ligands to modulate the interaction between the purified bacterial expressed FXRα ligand binding domain (LBD) and a synthetic biotinylated peptide based on residues 676-700 of steroid receptor coactivator-1 (SRC-1) (LXXLL-containing domain-2 where L is the amino acid leucine and X indicates any other amino acid (LCD2), 676-700). The sequence of the SRC-1 peptide used is as published in Iannone, M. A., et al., 2001 Cytometry 44:326-337 where the N-terminus was biotinylated (B) and the C-terminus was amidated. Detection of the associated complex was measured by time resolved fluorescence (TRF). The purified LBD of FXR was labeled with biotin, then mixed with stoichiometric amounts of allophycocyanin (APC) labeled streptavidin (Molecular Probes). The biotinylated peptide was then mixed with a ½ stoichiometric amount of europium labeled streptavidin (Wallac Inc). Each was then blocked with a 5 fold excess of biotin and allowed to equilibrate for 15 min. Equimolar amounts of receptor and peptide were mixed together and were allowed to equilibrate for at least 30 min prior to the addition to either a variable or constant concentrations of the sample for which the affinity is to be determined. After equilibration, the time-resolved fluorescent signal was quantitated using a fluorescent plate reader. The affinity of the test compound was estimated from a plot of fluorescence versus concentration of test compound added.
Ligands that promote the complex formation induce a concentration-dependent increase in time-resolved fluorescent signal.
Human FXRα Ligand Binding Domain (FXRα LBD) was expressed in E. coli strain BL21 (DE3) as an amino-terminal polyhistidine tagged fusion protein. Expression was under the control of an isopropyl-β-D-thiogalactopyranoside (IPTG) inducible T7 promoter. DNA encoding this recombinant protein is subcloned into the pRSET-A expression vector (Invitrogen). The coding sequence of Human FXRα LBD was derived from Genbank accession number U 68233 (amino acids 237 to 472).
Ten-liter fermentation batches were grown in Rich PO4 media with 0.1 mg/mL Ampicillin at 25° C. for 12 hours, cooled to 9° C. and held at that temperature for 36 hours to a density of OD600=14. At this cell density, 0.25 mM IPTG is added and induction proceeded for 24 hours at 9° C., to a final OD600=16. Cells are harvested by centrifugation (20 minutes, 3500×gravity, 4° C.), and concentrated cell slurries were stored in phosphate buffered saline (PBS) at […].
Routinely, 30-40 g cell paste (equivalent to 2-3 liters of the fermentation batch) was resuspended in 200-250 mL Tris buffered saline (TBS), pH 7.2 (25 mM Tris-hydroxymethylamino methane (Tris), 150 mM sodium chloride). Cells were lysed by passing 3 times through a French Press and cell debris was removed by centrifugation (30 minutes, 20,000×gravity, 4° C.). The cleared supernatant was filtered through course pre-filters, and TBS, pH 7.2, 500 mM imidazole was added to obtain a final imidazole concentration of 50 mM. This lysate was loaded onto a column (6×8 cm) packed with Sepharose [Ni^++ charged] Chelation resin (Pharmacia) and pre-equilibrated with TBS pH 7.2/50 mM imidazole. After washing to baseline absorbance with equilibration buffer, the column was washed with one column volume of TBS pH 7.2 containing 90 mM imidazole. FXRα LBD was eluted directly with 365 mM imidazole. Column fractions were pooled and dialyzed against TBS, pH 7.2, containing 0.5 mM EDTA and 5 mM DTT. The dialyzed protein sample was concentrated using Centri-prep 10 K (Amicon) and subjected to size exclusion, using a column (3×90 cm) packed with Sepharose S-75 resin (Pharmacia) pre-equilibrated with TBS, pH 7.2, containing 0.5 mM ethylene diamine tetraacetic acid (EDTA) and 5 mM dithiothreitol (DTT).

Some results are limits rather than exact numbers.

For the compound `CC(C)c1onc(-c2c(Cl)cccc2Cl)c1COc1ccc2c(ccn2S(=O)(=O)c2cccc(C(=O)O)c2)c1` [Example 43, 3-{[5-({[3-(2,6-Dichlorophenyl)-5-(1-methylethyl)-4-isoxazolyl]methyl}oxy)-1H-indol-1-yl]sulfonyl}benzoic acid], the EC50 was 0.102 to 1 µM.
`CC(C)c1onc(-c2c(Cl)cccc2Cl)c1COc1ccc2c(c1)CN(c1cccc(C(=O)O)c1)C2=O` [Example 44, 3-[5-({[3-(2,6-Dichlorophenyl)-5-(1-methylethyl)-4-isoxazolyl]methyl}oxy)-1-oxo-1,3-dihydro-2H-isoindol-2-yl]benzoic acid]: the EC50 was 0.102 to 1 µM.
With `CC(C)c1onc(-c2c(Cl)cccc2Cl)c1COc1ccc2c(c1)CC(=O)N(c1cccc(C(=O)O)c1)C2` [Example 45, 3-[6-({[3-(2,6-Dichlorophenyl)-5-(1-methylethyl)-4-isoxazolyl]methyl}oxy)-3-oxo-3,4-dihydro-2(1H)-isoquinolinyl]benzoic acid], the EC50 was 1.02 to 10 µM.
As to `CC(C)c1onc(-c2c(Cl)cccc2Cl)c1COc1ccc2c(ccn2Cc2ccc(-c3nnn[nH]3)cc2)c1` [Example 46, 5-({[3-(2,6-Dichlorophenyl)-5-(1-methylethyl)-4-isoxazolyl]methyl}oxy)-1-{[4-(1H-tetrazol-5-yl)phenyl]methyl}-1H-indole], the EC50 is below 0.1 µM.
The figure for `CC(C)c1onc(-c2c(Cl)cccc2Cl)c1COc1ccc2c(ccn2Cc2nc(C(=O)O)co2)c1` [Example 47, 2-{[5-({[3-(2,6-Dichlorophenyl)-5-(1-methylethyl)-4-isoxazolyl]methyl}oxy)-1H-indol-1-yl]methyl}-1,3-oxazole-4-carboxylic acid] is 0.102 to 1 µM.
With `Cc1ccc(Cn2ccc3cc(OCc4c(-c5c(Cl)cccc5Cl)noc4C(C)C)ccc32)cc1C(=O)O` [Example 48, 5-{[5-({[3-(2,6-Dichlorophenyl)-5-(1-methylethyl)-4-isoxazolyl]methyl}oxy)-1H-indol-1-yl]methyl}-2-methylbenzoic acid], the EC50 is 0.102 to 1 µM.
The figure for `CC(C)c1onc(-c2c(Cl)cccc2Cl)c1COc1ccc2c(ccn2Cc2cccc(C(=O)O)n2)c1` [Example 49, 6-{[5-({[3-(2,6-Dichlorophenyl)-5-(1-methylethyl)-4-isoxazolyl]methyl}oxy)-1H-indol-1-yl]methyl}-2-pyridinecarboxylic acid] is 0.102 to 1 µM; for `CC(C)c1onc(-c2c(Cl)cccc2Cl)c1COc1ccc2[nH]cc(Cc3cccc(C(=O)O)c3)c2c1` [Example 50, 3-{[5-({[3-(2,6-Dichlorophenyl)-5-(1-methylethyl)-4-isoxazolyl]methyl}oxy)-1H-indol-3-yl]methyl}benzoic acid] it is 1.02 to 10 µM.
The figure for `CC(C)c1onc(-c2c(Cl)cccc2Cl)c1COc1ccc2c(ccn2Cc2nc(C(=O)O)cs2)c1` [Example 51, 2-{[5-({[3-(2,6-Dichlorophenyl)-5-(1-methylethyl)-4-isoxazolyl]methyl}oxy)-1H-indol-1-yl]methyl}-1,3-thiazole-4-carboxylic acid] is 0.102 to 1 µM; for `CC(C)c1onc(-c2c(Cl)cccc2Cl)c1COc1ccc2c(Cc3cccc(C(=O)O)c3)c[nH]c2c1` [Example 52, 3-{[6-({[3-(2,6-Dichlorophenyl)-5-(1-methylethyl)-4-isoxazolyl]methyl}oxy)-1H-indol-3-yl]methyl}benzoic acid] it is 0.102 to 1 µM.
The result for `CC(C)c1onc(-c2c(Cl)cccc2Cl)c1COc1ccc2c(ccn2C(=O)N2CC[C@@H](C(=O)O)C2)c1` [Example 53, (3R)-1-{[5-({[3-(2,6-Dichlorophenyl)-5-(1-methylethyl)-4-isoxazolyl]methyl}oxy)-1H-indol-1-yl]carbonyl}-3-pyrrolidinecarboxylic acid] reads 0.102 to 1 µM.
Regarding `CC(C)c1onc(-c2c(Cl)cccc2Cl)c1COc1ccc2sc(-c3cccc(C(=O)O)c3)cc2c1` [Example 54, 3-[5-({[3-(2,6-Dichlorophenyl)-5-(1-methylethyl)-4-isoxazolyl]methyl}oxy)-1-benzothien-2-yl]benzoic acid], the EC50 was below 0.1 µM.
The result for `CC(C)c1onc(-c2c(Cl)cccc2Cl)c1COc1ccc2c(ccn2C(=O)N2CC[C@H](C(=O)O)C2)c1` [Example 55, (3S)-1-{[5-({[3-(2,6-Dichlorophenyl)-5-(1-methylethyl)-4-isoxazolyl]methyl}oxy)-1H-indol-1-yl]carbonyl}-3-pyrrolidinecarboxylic acid] reads 0.102 to 1 µM; that for `CC(C)c1onc(-c2c(Cl)cccc2Cl)c1COc1ccc2[nH]c(-c3cccc(C(=O)O)c3)cc2c1` [Example 56, 3-[5-({[3-(2,6-Dichlorophenyl)-5-(1-methylethyl)-4-isoxazolyl]methyl}oxy)-1H-indol-2-yl]benzoic acid], 0.102 to 1 µM; that for `CC(C)c1onc(-c2c(Cl)cccc2Cl)c1COc1ccc2c(c1)CC(c1cccc(C(=O)O)c1)C2` (centres unmarked) [Example 57, 3-[5-({[3-(2,6-Dichlorophenyl)-5-(1-methylethyl)-4-isoxazolyl]methyl}oxy)-2,3-dihydro-1H-inden-2-yl]benzoic acid], 0.102 to 1 µM.
The figure for `CC(C)c1onc(-c2c(Cl)cccc2Cl)c1COc1ccc2c(ccn2Cc2cccc(C(=O)O)c2)c1` [Example 59, 3-{[5-({[3-(2,6-Dichlorophenyl)-5-(1-methylethyl)-4-isoxazolyl]methyl}oxy)-1H-indol-1-yl]methyl}benzoic acid] is 0.102 to 1 µM; for `CC(C)c1onc(-c2c(Cl)cccc2Cl)c1COc1ccc2c(c1)CCN(c1cccc(C(=O)O)c1)C2=O` [Example 60, 3-[6-({[3-(2,6-Dichlorophenyl)-5-(1-methylethyl)-4-isoxazolyl]methyl}oxy)-1-oxo-3,4-dihydro-2(1H)-isoquinolinyl]benzoic acid] it is 0.102 to 1 µM.
